Experimental data from ChEMBL document CHEMBL3045247, “GUANIDINES: FROM MOLECULE TO PRIMATE” (2004).

Legend:
Design in all cases: scale not given: the % may be the effect or the level left
Papio ursinus [1] = test: Cardioprotective activity in Papio ursinus (baboon) ischaemic reperfusion injury model assessed as reduction of heart rate at 2 mg/kg, iv after 2 min relative to control; type: functional
Papio ursinus [2] = test: Cardioprotective activity in Papio ursinus (baboon) ischaemic reperfusion injury model assessed as reduction of diastolic blood pressure at 1 mg/kg, iv after 25 min; type: functional, Artery
Papio ursinus [3] = test: Cardioprotective activity in Papio ursinus (baboon) ischaemic reperfusion injury model assessed as reduction of diastolic blood pressure at 1 mg/kg, iv after 20 min; type: functional, Artery
Papio ursinus [4] = test: Cardioprotective activity in Papio ursinus (baboon) ischaemic reperfusion injury model assessed as reduction of diastolic blood pressure at 1 mg/kg, iv after 15 min; type: functional, Artery
Papio ursinus [5] = test: Cardioprotective activity in Papio ursinus (baboon) ischaemic reperfusion injury model assessed as reduction of diastolic blood pressure at 1 mg/kg, iv after 10 min; type: functional, Artery
Papio ursinus [6] = test: Cardioprotective activity in Papio ursinus (baboon) ischaemic reperfusion injury model assessed as reduction of diastolic blood pressure at 1 mg/kg, iv after 6 min; type: functional, Artery
Papio ursinus [7] = test: Cardioprotective activity in Papio ursinus (baboon) ischaemic reperfusion injury model assessed as reduction of diastolic blood pressure at 1 mg/kg, iv after 4 min; type: functional, Artery
Papio ursinus [8] = test: Cardioprotective activity in Papio ursinus (baboon) ischaemic reperfusion injury model assessed as reduction of diastolic blood pressure at 1 mg/kg, iv after 2 min; type: functional, Artery
Papio ursinus [9] = test: Cardioprotective activity in Papio ursinus (baboon) ischaemic reperfusion injury model assessed as reduction of heart rate at 2 mg/kg, iv after 4 min relative to control; type: functional
Papio ursinus [10] = test: Cardioprotective activity in Papio ursinus (baboon) ischaemic reperfusion injury model assessed as reduction of diastolic blood pressure at 2 mg/kg, iv after 25 min; type: functional, Artery
Papio ursinus [11] = test: Cardioprotective activity in Papio ursinus (baboon) ischaemic reperfusion injury model assessed as reduction of diastolic blood pressure at 2 mg/kg, iv after 20 min; type: functional, Artery
Papio ursinus [12] = test: Cardioprotective activity in Papio ursinus (baboon) ischaemic reperfusion injury model assessed as reduction of diastolic blood pressure at 2 mg/kg, iv after 15 min; type: functional, Artery
Papio ursinus [13] = test: Cardioprotective activity in Papio ursinus (baboon) ischaemic reperfusion injury model assessed as reduction of diastolic blood pressure at 2 mg/kg, iv after 10 min; type: functional, Artery
Papio ursinus [14] = test: Cardioprotective activity in Papio ursinus (baboon) ischaemic reperfusion injury model assessed as reduction of diastolic blood pressure at 2 mg/kg, iv after 6 min; type: functional, Artery
Papio ursinus [15] = test: Cardioprotective activity in Papio ursinus (baboon) ischaemic reperfusion injury model assessed as reduction of diastolic blood pressure at 2 mg/kg, iv after 4 min; type: functional, Artery
Papio ursinus [16] = test: Cardioprotective activity in Papio ursinus (baboon) ischaemic reperfusion injury model assessed as reduction of systolic blood pressure at 1 mg/kg, iv after 25 min; type: functional, Artery
Papio ursinus [17] = test: Cardioprotective activity in Papio ursinus (baboon) ischaemic reperfusion injury model assessed as reduction of systolic blood pressure at 2 mg/kg, iv after 25 min; type: functional, Artery
Papio ursinus [18] = test: Cardioprotective activity in Papio ursinus (baboon) ischaemic reperfusion injury model assessed as reduction of systolic blood pressure at 2 mg/kg, iv after 20 min; type: functional, Artery
Papio ursinus [19] = test: Cardioprotective activity in Papio ursinus (baboon) ischaemic reperfusion injury model assessed as reduction of systolic blood pressure at 2 mg/kg, iv after 15 min; type: functional, Artery
Papio ursinus [20] = test: Cardioprotective activity in Papio ursinus (baboon) ischaemic reperfusion injury model assessed as reduction of systolic blood pressure at 2 mg/kg, iv after 6 min; type: functional, Artery
Papio ursinus [21] = test: Cardioprotective activity in Papio ursinus (baboon) ischaemic reperfusion injury model assessed as reduction of systolic blood pressure at 2 mg/kg, iv after 10 min; type: functional, Artery
Papio ursinus [22] = test: Cardioprotective activity in Papio ursinus (baboon) ischaemic reperfusion injury model assessed as reduction of systolic blood pressure at 2 mg/kg, iv after 4 min; type: functional, Artery
Papio ursinus [23] = test: Cardioprotective activity in Papio ursinus (baboon) ischaemic reperfusion injury model assessed as reduction of systolic blood pressure at 2 mg/kg, iv after 2 min; type: functional, Artery
Papio ursinus [24] = test: Cardioprotective activity in Papio ursinus (baboon) ischaemic reperfusion injury model assessed as reduction of heart rate at 1 mg/kg, iv after 25 min relative to control; type: functional
Papio ursinus [25] = test: Cardioprotective activity in Papio ursinus (baboon) ischaemic reperfusion injury model assessed as reduction of heart rate at 1 mg/kg, iv after 20 min relative to control; type: functional
Papio ursinus [26] = test: Cardioprotective activity in Papio ursinus (baboon) ischaemic reperfusion injury model assessed as reduction of heart rate at 1 mg/kg, iv after 15 min relative to control; type: functional
Papio ursinus [27] = test: Cardioprotective activity in Papio ursinus (baboon) ischaemic reperfusion injury model assessed as reduction of heart rate at 1 mg/kg, iv after 10 min relative to control; type: functional
Papio ursinus [28] = test: Cardioprotective activity in Papio ursinus (baboon) ischaemic reperfusion injury model assessed as reduction of heart rate at 1 mg/kg, iv after 6 min relative to control; type: functional
Papio ursinus [29] = test: Cardioprotective activity in Papio ursinus (baboon) ischaemic reperfusion injury model assessed as reduction of heart rate at 1 mg/kg, iv after 4 min relative to control; type: functional
Papio ursinus [30] = test: Cardioprotective activity in Papio ursinus (baboon) ischaemic reperfusion injury model assessed as reduction of diastolic blood pressure at 2 mg/kg, iv after 2 min; type: functional, Artery
Papio ursinus [31] = test: Cardioprotective activity in Papio ursinus (baboon) ischaemic reperfusion injury model assessed as reduction of systolic blood pressure at 1 mg/kg, iv after 20 min; type: functional, Artery
Papio ursinus [32] = test: Cardioprotective activity in Papio ursinus (baboon) ischaemic reperfusion injury model assessed as reduction of systolic blood pressure at 1 mg/kg, iv after 15 min; type: functional, Artery
Papio ursinus [33] = test: Cardioprotective activity in Papio ursinus (baboon) ischaemic reperfusion injury model assessed as reduction of systolic blood pressure at 1 mg/kg, iv after 10 min; type: functional, Artery
Papio ursinus [34] = test: Cardioprotective activity in Papio ursinus (baboon) ischaemic reperfusion injury model assessed as reduction of systolic blood pressure at 1 mg/kg, iv after 6 min; type: functional, Artery
Papio ursinus [35] = test: Cardioprotective activity in Papio ursinus (baboon) ischaemic reperfusion injury model assessed as reduction of systolic blood pressure at 1 mg/kg, iv after 4 min; type: functional, Artery
Papio ursinus [36] = test: Cardioprotective activity in Papio ursinus (baboon) ischaemic reperfusion injury model assessed as reduction of systolic blood pressure at 1 mg/kg, iv after 2 min; type: functional, Artery
Papio ursinus [37] = test: Cardioprotective activity in Papio ursinus (baboon) ischaemic reperfusion injury model assessed as reduction of heart rate at 1 mg/kg, iv after 2 min relative to control; type: functional
Papio ursinus [38] = test: Cardioprotective activity in Papio ursinus (baboon) ischaemic reperfusion injury model assessed as reduction of heart rate at 2 mg/kg, iv after 25 min relative to control; type: functional
Papio ursinus [39] = test: Cardioprotective activity in Papio ursinus (baboon) ischaemic reperfusion injury model assessed as reduction of heart rate at 2 mg/kg, iv after 20 min relative to control; type: functional
Papio ursinus [40] = test: Cardioprotective activity in Papio ursinus (baboon) ischaemic reperfusion injury model assessed as reduction of heart rate at 2 mg/kg, iv after 15 min relative to control; type: functional
Papio ursinus [41] = test: Cardioprotective activity in Papio ursinus (baboon) ischaemic reperfusion injury model assessed as reduction of heart rate at 2 mg/kg, iv after 10 min relative to control; type: functional
Papio ursinus [42] = test: Cardioprotective activity in Papio ursinus (baboon) ischaemic reperfusion injury model assessed as reduction of heart rate at 2 mg/kg, iv after 6 min relative to control; type: functional

Work on `COc1ccc(/C=N/NC(=N)N)c(Cl)c1OC` yielded an Activity (Papio ursinus [1]) of 12.95%, an Activity (Papio ursinus [2]) of 20.31% and an Activity (Papio ursinus [3]) of 31.36%. The Activity (Papio ursinus [4]) was 15.16%, the Activity (Papio ursinus [5]) was 7.58% and the Activity (Papio ursinus [6]) was 3.8%. It also gave an Activity (Papio ursinus [7]) of 2.67%, an Activity (Papio ursinus [8]) of 0.02% and an Activity (Papio ursinus [9]) of 17.1%. The Activity (Papio ursinus [10]) was 2.78%, the Activity (Papio ursinus [11]) was 4.9% and the Activity (Papio ursinus [12]) was 2.2%. It also gave an Activity (Papio ursinus [13]) of 1.02%, an Activity (Papio ursinus [14]) of 1.78% and an Activity (Papio ursinus [15]) of 4.24%. The Activity (Papio ursinus [16]) was 16.22%, the Activity (Papio ursinus [17]) was 9.54% and the Activity (Papio ursinus [18]) was 8.48%. The Activity (Papio ursinus [19]) was 6.84%, the Activity (Papio ursinus [20]) was 5.72% and the Activity (Papio ursinus [21]) was 7.45%. For the same molecule, the Activity (Papio ursinus [22]) was 3.1%, the Activity (Papio ursinus [23]) was 5.24% and the Activity (Papio ursinus [24]) was 18.28%. The Activity (Papio ursinus [25]) was 15.6%, the Activity (Papio ursinus [26]) was 15.47% and the Activity (Papio ursinus [27]) was 15.96%. For the same molecule, the Activity (Papio ursinus [28]) was 14.6%, the Activity (Papio ursinus [29]) was 10.77% and the Activity (Papio ursinus [30]) was 10.1%. For the same molecule, the Activity (Papio ursinus [31]) was 10.56%, the Activity (Papio ursinus [32]) was 9.36% and the Activity (Papio ursinus [33]) was 3.62%. It also gave an Activity (Papio ursinus [34]) of 0.26%, an Activity (Papio ursinus [35]) of 0.3% and an Activity (Papio ursinus [36]) of 0.02%. For the same molecule, the Activity (Papio ursinus [37]) was 5.33%, the Activity (Papio ursinus [38]) was 27.74% and the Activity (Papio ursinus [39]) was 19.52%. It also gave an Activity (Papio ursinus [40]) of 19.68%, an Activity (Papio ursinus [41]) of 18.88% and an Activity (Papio ursinus [42]) of 18.96%.
